Laboratory results as given in article PMC5299597, “Evaluation of the safety, pharmacokinetics, pharmacodynamics, and drug-drug interaction potential of a selective Lp-PLA2 inhibitor (GSK2647544) in healthy volunteers” (International Journal of Clinical Pharmacology and …, 2016).
One block for each compound: values may come before it.

Experiments:
[1] = target: T1, CYP3A4 (Homo sapiens, UniProt P08684); assay: clinical; conditions: plasma, oral; for AUC(0-t): AUC(0-t) of analyte; for AUC(0-t) / Cmax: geometric mean (CVb%); for Cmax: Cmax of analyte
T1 sequence (P08684 whole entry): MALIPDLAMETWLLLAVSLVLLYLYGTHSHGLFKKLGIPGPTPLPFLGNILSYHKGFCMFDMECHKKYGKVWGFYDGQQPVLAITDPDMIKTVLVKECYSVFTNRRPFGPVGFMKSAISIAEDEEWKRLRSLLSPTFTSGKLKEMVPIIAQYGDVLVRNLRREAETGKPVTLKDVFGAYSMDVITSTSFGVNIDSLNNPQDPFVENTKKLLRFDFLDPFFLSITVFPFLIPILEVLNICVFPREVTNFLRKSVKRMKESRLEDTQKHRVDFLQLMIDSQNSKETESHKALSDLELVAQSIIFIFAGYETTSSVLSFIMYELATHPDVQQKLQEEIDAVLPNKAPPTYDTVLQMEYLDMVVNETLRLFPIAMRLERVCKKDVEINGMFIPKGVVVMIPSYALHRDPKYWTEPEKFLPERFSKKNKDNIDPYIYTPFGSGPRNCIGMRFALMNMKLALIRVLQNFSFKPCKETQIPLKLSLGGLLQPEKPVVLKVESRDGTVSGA

[2] = target: T1, CYP3A4; conditions: A1+S vs S, the 9 subjects who received both
[3] = Study 2: safety and tolerability (adverse events); conditions: by treatment: simvastatin 10 mg SD N = 12; GSK2647544 80 mg b.i.d. 7 days + simvastatin N = 9
[4] = set-up: method as in PMID 9461591; conditions: DM/HC pigs, vs untreated; cited from earlier work
[5] = phase 2a study; cited from earlier work
[6] = 10 mg, S = simvastatin 10 mg SD alone
[7] = A1+S = simvastatin 10 mg SD plus GSK2647544 80 mg b.i.d. for 7 days
[8] = P1+S = simvastatin 10 mg SD plus matched placebo b.i.d. for 7 days

AUC(0-t) [1, 6]: 2.49 ng·h/mL
Cmax [1, 6]: 0.504 ng/mL
Tmax ([1]; 10 mg, tmax of analyte, median (range), S = simvastatin 10 mg SD alone): 4.04 h
AUC(0-t) [1, 7]: 7.93 ng·h/mL
AUC(0-t) [1, 8]: 2.14 ng·h/mL
Cmax [1, 7]: 1.3 ng/mL
Cmax [1, 8]: 0.351 ng/mL
Tmax ([1]; median tmax of analyte, simvastatin alone): 4 h
Tmax ([1]; median tmax of analyte, simvastatin in combination with GSK2647544): 6 h
Tmax ([1]; tmax of analyte, median (range), A1+S = simvastatin 10 mg SD plus GSK2647544 80 mg b.i.d. for 7 days): 5.92 h
Tmax ([1]; tmax of analyte, median (range), P1+S = simvastatin 10 mg SD plus matched placebo b.i.d. for 7 days): 5.92 h
Ratio of geometric means (90% CI), AUC(0-t) [2]: 3.09 (1.05, 9.03)
Ratio of geometric means (90% CI), AUC(0–∞) [2]: 1.50 (0.48, 4.71)
Ratio of geometric means (90% CI), Cmax [2]: 2.30 (1.46, 3.63)
Compound: CCC(C)(C)C(=O)O[C@H]1C[C@@H](C)C=C2C=C[C@H](C)[C@H](CC[C@@H](O)C[C@@H](O)CC(=O)O)[C@H]21 [Simvastatin acid, simvastatin acid]

Compound: CCC(C)(C)C(=O)O[C@H]1C[C@@H](C)C=C2C=C[C@H](C)[C@H](CC[C@@H]3C[C@@H](O)CC(=O)O3)[C@H]21 [Simvastatin, simvastatin]
Abdominal discomfort [3]: 0 n (%)
Abdominal distention [3]: 0 n (%)
Any AE [3]: 1 (8%) n (%)
Application site rash [3]: 1 (8%) n (%)
Arthragia [3]: 0 n (%)
Back pain [3]: 0 n (%)
Dizziness [3]: 0 n (%)
Eructation [3]: 0 n (%)
Headache [3]: 0 n (%)
Nasopharyngitis [3]: 0 n (%)
Pain in extremity [3]: 0 n (%)
Pollakiuria [3]: 1 (8%) n (%)

Compound: CCN(CC)CCN(Cc1ccc(-c2ccc(C(F)(F)F)cc2)cc1)C(=O)Cn1c(SCc2ccc(F)cc2)nc(=O)c2c1CCC2 [darapladib]
extent of immunoglobulin-G brain parenchyma penetration [4]: numerically reduced
total amount of brain amyloid-β peptide 1-42 deposition [4]: significantly lowered

Compound: COCCN1CCC(N(Cc2ccc(-c3ccc(C(F)(F)F)cc3)cc2)C(=O)Cn2c(SCc3cccc(F)c3F)cc(=O)c3ccccc32)CC1 [rilapladib]
cognitive outcomes [5]: improved cognitive outcomes
